Data set [1] is described as follows: Freeze-thaw stability of derivatives (freeze-thaw yield by liquid chromatography). In kind it is physicochemical. The settings on record: for Dissolution property: appearance after dissolution at 0.2 mg/ml in 20 mM phosphate buffer solution (PB) (pH 7.0); for Freeze storage property: appearance after overnight storage at −20° C. and thawing to room temperature, 0.2 mg/ml in 20 mM PB (pH 7.0); for Freeze storage yield: concentration of polypeptide after freezing and thawing / concentration before, by liquid chromatography, −20° C. overnight. The procedure, abridged:
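Lyophilised peptide derivative dissolved at 0.2 mg/ml in 20 mM phosphate buffer, pH 7.0, frozen overnight at −20° C, then thawed at room temperature. Peptide concentration before and after freeze-thaw measured by reversed-phase HPLC on centrifuged supernatant; yield = post-thaw/pre-thaw concentration.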

The target of a further data set is T1, human amylin receptor (Homo sapiens, UniProt O60896+P30988).
T1 construct: host or cells: CHO-K1/Ga15/AMY3 cells, further stably transfected with a CRE-luciferase plasmid
T1 sequence (P30988 25-474): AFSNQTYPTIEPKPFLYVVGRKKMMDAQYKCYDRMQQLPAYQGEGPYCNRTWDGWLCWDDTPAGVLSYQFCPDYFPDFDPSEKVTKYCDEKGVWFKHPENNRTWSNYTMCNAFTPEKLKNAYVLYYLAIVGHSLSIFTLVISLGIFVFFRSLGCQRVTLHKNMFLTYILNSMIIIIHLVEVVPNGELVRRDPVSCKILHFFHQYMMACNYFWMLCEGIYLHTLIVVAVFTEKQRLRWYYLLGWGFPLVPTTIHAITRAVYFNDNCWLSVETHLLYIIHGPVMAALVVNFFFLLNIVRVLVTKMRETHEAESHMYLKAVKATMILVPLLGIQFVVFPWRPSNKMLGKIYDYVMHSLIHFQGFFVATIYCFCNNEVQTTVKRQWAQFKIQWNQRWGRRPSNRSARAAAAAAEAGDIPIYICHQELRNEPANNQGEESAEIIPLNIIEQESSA
T1 sequence (O60896 24-148 partner): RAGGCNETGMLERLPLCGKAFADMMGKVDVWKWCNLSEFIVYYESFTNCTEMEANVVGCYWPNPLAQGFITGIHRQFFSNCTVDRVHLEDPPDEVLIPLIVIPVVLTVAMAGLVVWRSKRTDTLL
The data set is described as follows: Luciferase assay of amylin derivatives in amylin receptor/CRE-luc CHO cell line. In kind it is cell-based. The settings on record: CHO-K1/Ga15/AMY3 CRE-luc cells, 24 hours incubation, F12 medium containing 10% FBS; read-out: EC50.

Numbered stars: 1 amine (or outer) side, 2 acyl side, 3 side chain; on linkers, the order of the positions; unused ones are H or OH. Bridge positions count the residues as written; N and C are the ends. Square brackets hold non-standard residues; d marks the D form. Side chains are listed from the residue outwards. Peptide text beside a SMILES is read from it. * marks the point of attachment. C18 diacid = O=C(O)CCCCCCCCCCCCCCCCC(=O)*; γGlu = O=C(O)[C@H](CCC(=O)[*:2])N[*:1]; Hyp = O=C(O)[C@@H]1C[C@@H](O)CN1; AEEA = NCCOCCOCC(=O)O

As a reminder, the EC50 is the midpoint of the concentration-response curve.

Description for human amylin receptor: The experiment was intended to detect the activity or efficacy of the amylin derivatives on a human amylin receptor in vitro by luciferase assay.
50 μL of growth medium (F12 medium containing 10% FBS) was added into each well of a white 96-well plate, and the stably transfected amylin/CRE-lue CHO cells were inoculated into the white 96-well plate at a density of about 20,000 cells/well for activity determination.

With `CC[C@H](C)[C@H](NC(=O)[C@@H]1CCCN1C(=O)CNC(=O)[C@H](CC(C)C)NC(=O)[C@H](CC(N)=O)NC(=O)[C@H](CC(N)=O)NC(=O)[C@H](CO)NC(=O)[C@H](CCCCNC(=O)COCCOCCNC(=O)CC[C@H](NC(=O)CCCCCCCCCCCCCCCCC(=O)O)C(=O)O)NC(=O)[C@H](Cc1c[nH]cn1)NC(=O)[C@H](CCCNC(=N)N)NC(=O)[C@H](CC(C)C)NC(=O)[C@H](Cc1ccccc1)NC(=O)[C@H](CC(=O)O)NC(=O)[C@H](C)NC(=O)[C@H](CC(C)C)NC(=O)[C@H](CCCNC(=N)N)NC(=O)[C@H](CCC(N)=O)NC(=O)[C@@H](NC(=O)[C@H](C)NC(=O)[C@@H]1CSSC[C@H](NC(=O)[C@@H](N)CCCNC(=N)N)C(=O)N[C@@H](CC(N)=O)C(=O)N[C@@H]([C@@H](C)O)C(=O)N[C@@H](C)C(=O)N[C@@H]([C@@H](C)O)C(=O)N1)[C@@H](C)O)C(=O)N[C@@H](CC(C)C)C(=O)N1CCC[C@H]1C(=O)N1CCC[C@H]1C(=O)N[C@H](C(=O)N[C@@H](CC(N)=O)C(=O)N[C@H](C(=O)NCC(=O)N[C@@H](CO)C(=O)N[C@@H](CC(N)=O)C(=O)N[C@H](C(=O)N1C[C@H](O)C[C@H]1C(N)=O)[C@@H](C)O)C(C)C)[C@@H](C)O` [PD119] (H-RCNTATCATQRLADFLRHK([AEEA-γGlu-C18 diacid])SNNLGPILPPTNVGSNT[Hyp]-NH2; disulfide 2-7 (inferred); N-terminus assumed), in data set [1], the Dissolution property result is reported as “Clear”, the Freeze storage property result was “Clear” and the Freeze storage yield stood at 103.04%. Besides, the EC50 on human amylin receptor was 0.024 nM.

On to `CC[C@H](C)[C@H](NC(=O)[C@@H]1CCCN1C(=O)[C@H](CCCCNC(=O)COCCOCCNC(=O)CC[C@H](NC(=O)CCCCCCCCCCCCCCCCC(=O)O)C(=O)O)NC(=O)[C@H](CC(C)C)NC(=O)[C@H](CC(N)=O)NC(=O)[C@H](CC(N)=O)NC(=O)[C@H](CO)NC(=O)[C@H](CO)NC(=O)[C@H](Cc1c[nH]cn1)NC(=O)[C@H](CCCNC(=N)N)NC(=O)[C@H](CC(C)C)NC(=O)[C@H](Cc1ccccc1)NC(=O)[C@H](CC(=O)O)NC(=O)[C@H](C)NC(=O)[C@H](CC(C)C)NC(=O)[C@H](CCCNC(=N)N)NC(=O)[C@H](CCC(N)=O)NC(=O)[C@@H](NC(=O)[C@H](C)NC(=O)[C@@H]1CSSC[C@H](NC(=O)[C@@H](N)CCCNC(=N)N)C(=O)N[C@@H](CC(N)=O)C(=O)N[C@@H]([C@@H](C)O)C(=O)N[C@@H](C)C(=O)N[C@@H]([C@@H](C)O)C(=O)N1)[C@@H](C)O)C(=O)N[C@@H](CC(C)C)C(=O)N1CCC[C@H]1C(=O)N1CCC[C@H]1C(=O)N[C@H](C(=O)N[C@@H](CC(N)=O)C(=O)N[C@H](C(=O)NCC(=O)N[C@@H](CO)C(=O)N[C@@H](CC(N)=O)C(=O)N[C@H](C(=O)N1C[C@H](O)C[C@H]1C(N)=O)[C@@H](C)O)C(C)C)[C@@H](C)O` [PD108] (H-RCNTATCATQRLADFLRHSSNNLK([AEEA-γGlu-C18 diacid])PILPPTNVGSNT[Hyp]-NH2; disulfide 2-7 (inferred); N-terminus assumed), for which, in data set [1], the Dissolution property entry is “Clear”, the Freeze storage property result is recorded as “Clear” and the Freeze storage yield is reported as 96.86%. In addition, the EC50 at human amylin receptor worked out at 0.028 nM.

The values above are taken from patent US20260166128A1, “HUMAN AMYLIN ANALOG, AND DERIVATIVE THEREOF AND USE THEREOF” (priority 2022, published 2026).
